Source: publication PMC12382740, “In Vitro and In Vivo Characterization of Novel Cathelicidin-Based Peptides with Antimicrobial Activity Against Pseudomonas aeruginosa” (Antibiotics, 2025)
Like-named read-outs stand apart in the source and are kept apart here. Square brackets hold non-standard residues; d marks the D form. Peptide text beside a SMILES is read from it.

What was measured:
[1] = test system: P. aeruginosa Strain 121007; format: cell-based, Pseudomonas aeruginosa
Description: (§1) The antimicrobial activity of the peptides was tested against a collection of P. aeruginosa, selected by their resistance or susceptibility to colistin and/or classified as MDR strains. The origin of the strains was either clinical, relevant to the current clinical situation, or commercial strains belonging to the American Type Culture Collection (ATCC, Manassas, VA, USA), which complemented the collection for comparison and control. For the initial activity screening of the 17 peptides, we tested them against P. aeruginosa ATCC strains 1211007 and 1211101. Both strains are multidrug-resistant; however, the key difference is that strain 1211007 is susceptible to colistin, whereas strain 1211101 is resistant to colistin.
(§2) Minimum Inhibitory Concentration (MIC) of the antimicrobial agents against bacterial strains was obtained through broth microdilution assays following a protocol based on the Clinical & Laboratory Standards Institute’s guidelines. Modifications regarding microplate material and broth were included when testing the peptides’ activity and are detailed below. Colistin MICs were obtained following recommendations of the joint CLSI-EUCAST Polymyxin Breakpoints Working Group using Cation Adjusted Mueller-Hinton Broth (90922, 500 g Sigma-Aldrich®, St. Louis, MO, USA), and strains Escherichia coli 13846 (mcr-1 positive) and P. aeruginosa ATCC 27853 were used as quality controls in all assays. Bacteria were cultured in Columbia Agar plates (Columbia Agar with 5% Sheep Blood 90 mm Stacker plates, Becton Dickinson, Franklin Lakes, NJ, USA) and incubated overnight at 37 °C. Polypropylene round-bottomed 96-well plates (-96-well Polypropylene Storage Microplates, 267334, Thermo Fischer Scientific, Waltham, MA, USA) were used to prevent peptide binding to plate walls. AST broth (BD Phoenix™ AST broth, 8 mL, 246003, Becton Dickinson, Franklin Lakes, NJ, USA) was used when testing the peptides’ activity. […] Three biological and technical replicates were performed per strain.

[2] = test system: P. aeruginosa Strain ATCC 121110; format: cell-based, Pseudomonas aeruginosa
Description: as §1, §2

[3] = test system: P. aeruginosa strain panel; format: cell-based, Pseudomonas aeruginosa
Description: as §1, §2

A549 cells = format: cell-based, human; settings: for IC50: 24 h; for A549 IC50: 24 h treatment, XTT, value in brackets
Description: (§3) Cell viability assays were performed against HeLa and A549 cells. Cells were seeded in Corning 96-well microplates at 2 × 10^3 cells/well and 5 × 10^3 cells/well and incubated for 24 h at 37 °C. Then, cells were treated with peptides dissolved in Dulbecco’s Modified Eagle’s Medium for 24 h; peptide concentration range 0.1–100 µM. The peptide solution was then removed, and fresh medium was added to the cells. Finally, 50 µL of activated-XTT solution was added and incubated for 4 h at 37 °C. A PowerWave X reader (BioTek, Winooski, VT, USA) was used to measure absorbance at 450 nm. Cell viability was calculated through the ratio of the absorbance of peptide-treated cells over the absorbance of untreated cells. Triplicates were run for each experiment.

HeLa cells = format: cell-based, human; settings: 24 h
Description: as §3

[4] = test system: P. aeruginosa ATCC 121110; assay: Time-kill kinetic assay; format: cell-based, Pseudomonas aeruginosa
Description: (§4) Timepoints to withdraw aliquots of liquid cultures for each peptide, concentration, and strain were established at the following: 0, 2, 4, 8, and 24 h after inoculation. McFarland 0.5 solutions (~1.5 × 10^8 CFU/mL) were prepared from single-picked colonies grown O/N at 37 °C in Columbia Agar plates. Thirteen mL Falcon tubes were used to prepare solutions containing 5 mL of total volume by adding the following: 1 mL of peptide solution at 5 times chosen assay concentration to test, 3.75 mL AST, and 0.25 mL of a 1:10 McFarland dilution in AST. Positive controls contained 4.75 mL AST and 0.25 mL of strain inoculum diluted in AST; negative controls only contained 5 mL of AST. After adding the inoculum into each tube and vortexing, a 150 µL aliquot was taken from each tube at timepoint 0 h. All tubes were then placed in a 37 °C shaker-incubator at 180 rpm. Likewise, for timepoints 2, 4, 8, and 24 h, a 150 µL aliquot was withdrawn at each time for each tube. Each of these aliquots was serially diluted in 1:10 ratio in PBS 1× and 20 µL of the serial dilutions were spread on LB agar plates and incubated O/N at 37 °C. […] grown in LB agar plates were counted. Bacterial concentration (CFU/mL) for each strain, timepoint, and peptide concentration tested was calculated. Bactericidal effect was considered when there was a decrease of at least 3 in log10 (CFU/mL) for each peptide concentration at a given timepoint against each bacterial strain studied. A detection limit of 50 CFU/mL was established, corresponding to 1.70 log10 (CFU/mL), as 20 µL of each direct aliquot sample was spread in LB agar plates. Three replicates were run per peptide and strain.

P. aeruginosa R2 = assay: Time-kill kinetic assay; format: cell-based, Pseudomonas aeruginosa
Description: as §4

[5] = Strain 121007, value in brackets
[6] = Strain ATCC 121110, value in brackets
[7] = panel of 15 P. aeruginosa strains
[8] = panel of 15 P. aeruginosa strains, value in brackets

Row | Compound | MIC ([1]; Strain 121007) [mg/L] | MIC [1, 5] [µM] | MIC ([2]; Strain ATCC 121110) [mg/L] | MIC [2, 6] [µM] | MIC50 [3, 7] [mg/L] | MIC90 [3, 7] [mg/L] | MIC50 [3, 8] [µM] | MIC90 [3, 8] [µM] | IC50 (A549 cells) [µM] | A549 IC50 (A549 cells) [mg/L] | IC50 (HeLa cells) [µM] | effect after 24 h incubation (P. aeruginosa R2; strain R2, 4× MIC) | incubation time to bactericidal effect (decrease of at least 3 log10 CFU/mL) (P. aeruginosa R2; strain R2, 4× MIC) [h] | effect after 24 h incubation (P. aeruginosa R2; strain R2, 8× MIC) | incubation time to bactericidal effect (decrease of at least 3 log10 CFU/mL) (P. aeruginosa R2; strain R2, 8× MIC) [h] | further results
1 | CC[C@@H](C)[C@@H](NC(=O)[C@@H](CCCCN)NC(=O)[C@@H](CCCCN)NC(=O)[C@@H](CC(C)C)NC(=O)[C@@H](CCCCN)NC(=O)[C@@H](CCC(=O)O)NC(=O)[C@@H](CCCCN)NC(=O)[C@H](NC(=O)[C@@H](CCCCN)NC(=O)[C@@H](CC(N)=O)NC(=O)[C@@H](CCCNC(=N)N)NC(=O)[C@@H](Cc1ccccc1)NC(=O)[C@@H](CCCCN)NC(=O)[C@@H](CCCNC(=N)N)NC(=O)[C@@H](CC(C)C)NC(=O)[C@@H](CCCNC(=N)N)NC(=O)[C@@H](CCCCN)NC(=O)[C@@H](CCCNC(=N)N)NC(=O)[C@@H](CC(C)C)NC(=O)CN)[C@H](C)CC)C(=O)NCC(=O)N[C@H](CCC(N)=O)C(=O)N[C@H](CCCCN)C(=O)N[C@@H](C(=O)N[C@H](CCC(N)=O)C(=O)NCC(=O)N[C@H](CC(C)C)C(=O)N[C@H](CC(C)C)C(=O)N1CCC[C@@H]1C(=O)N[C@H](CCCCN)C(=O)N[C@H](CC(C)C)C(=O)O)[C@H](C)CC [D-CAP-18_31, Glrkrlrkfrnkikeklkkigqkiqgllpkl] (H-G[dL][dR][dK][dR][dL][dR][dK][dF][dR][dN][dK][dI][dK][dE][dK][dL][dK][dK][dI]G[dQ][dK][dI][dQ]G[dL][dL][dP][dK][dL]-OH) | 2 | 0.5 | 0.25 | 0.07 | 4 | 16 | 1.1 | 4.3 | 12.3 | 45.94 | 6.16 | maintained after 24 h | 8 | maintained after 24 h | 4 | MIC90 ([3]; strain panel): 16 mg/L; incubation time to 3 log reduction / bactericidal effect ([4]; strain ATCC 121110, 4× MIC): 4 h; incubation time to 3 log reduction / bactericidal effect ([4]; strain ATCC 121110, 8× MIC): 4 h
2 | H-GLRKRLRKFRNKIKEKLKKIGQKIQGLLPKL-OH [CAP-18_31] | 8 | 2.1 | 0.5 | 0.1 | 2 | 16 | 0.5 | 4.3 | 1.31 | 4.89 | 13.1 | bacterial regrowth | 4 | maintained the bactericidal effect after 24 h | 4 | MIC50 ([3]; strain panel): 2 mg/L; effect after 24 h incubation ([4]; strain ATCC 121110, 8× MIC): total eradication of the bacterial growth; incubation time to bactericidal effect (decrease of at least 3 log10 CFU/mL) (P. aeruginosa R2; strain R2, 2× MIC): 8 h
